Results published in PMC5823469, “Unique pharmacological properties of serotoninergic G-protein coupled receptors from cestodes” (PLoS Neglected Tropical Diseases, 2018).
Like-named read-outs stand apart in the source and are kept apart here.

Tests used:
5-HT7Egran2 = 5-HT7Egran2 (Echinococcus canadensis, UniProt A0A482LXK0); assay: cell-based; type: cell-based, Echinococcus granulosus
Experimental: (§1) HEK-293 cells (ATCC CRL-1573.3) were cultured in growth media [DMEM (Gibco), 10% heat inactivated fetal bovine serum (Gibco), penicillin (100units/mL), streptomycin (100μg/mL) and L-glutamine (290μg/mL)] and used for assays between passages 5 and 25. For cestode GPCR heterologous expression assays, cells were transfected (Lipofectamine 2000, Invitrogen) at 80% confluency approximately 16 hours after seeding within T-25 culture flasks with a 1:1 ratio of human codon optimized cestode GPCR cDNA (subcloned into a pcDNA3.1(-) mammalian expression vector) and cDNA encoding the pGloSensor 22-F plasmid (Promega). The following day, cells were trypsinized, centrifuged (300g/5min), resuspended in DMEM supplemented with 1% dialyzed FBS (Gibco) and plated in 96 well, solid white plates (Corning, cat # 3917). After overnight culture to allow adherence, media was exchanged for assay buffer (HBSS supplemented with 0.1% BSA, 20mM HEPES (pH 7.4), and GloSensor reagent (Promega). cAMP-luminescence assays were performed following addition of a phosphodiesterase inhibitor (3-isobutyl-1-methylxanthine, IBMX; 200μM) using a GloMax-Multi Detection System plate reader (Promega) as described previously.

5-HT7Egran1 = 5-HT7Egran1 (Echinococcus canadensis, UniProt A0A482LU10); assay: cell-based; type: cell-based, Echinococcus granulosus; conditions: for pharmacological behaviour (agonist/antagonist, efficacy) in cAMP assay: 5-HT7Egran1
Experimental: as §1

5-HT7Mco1 = 5-HT7Mco1 (Mesocestoides corti, UniProt A0A482LRJ4); assay: cell-based; type: cell-based
Experimental: as §1

human 5-HT1A receptor = molecular target: human 5-HT1A receptor; set-up: method as in PMID 24900203; conditions: cited from earlier work
[1] = system: Mesocestoides corti tetrathyridia; assay: Motility index of tetrathyridia, WMicrotracker (light scattering)
Experimental: For the motility index measurement, the method of Camicia et al. was followed with minor modifications. In the case of E. granulosus, protoscoleces were mantained in RPMI medium with high glucose (Gibco, USA) with 50 μg/ml of gentamicin for no more than 48 hours in order to avoid the potential differentiation of the protoscolex towards premicrocyst. The day before the experiment the protoscoleces were transferred to U-shape 96-well microplates (Greiner Bio-One, Germany) with approximately 125 parasites per 100 μl per well. This number of parasites per well was empirically determined as the best number of worms to perform the experiments. Movement was measured as described for C. elegans using a worm tracker device (WMicrotracker Designplus SRL, Argentina) which determines the motility index by the light-microbeam (100 μm wide; k = 880 nm; intensity <1 mW) scattering produced by the movement of parasites. Quantification of the signal was performed by applying a mathematical algorithm previously described for sperm viability determination (Patent number: US4176953, year of submission: 1978, year of publication: 1979).
To study the effect of 5-HT on the motility of M. corti tetrathyridia, only one worm per well was used as this was the empirically determined optimal number. […] M. corti tetrathyridia were used fresh, immediately after the mice was opened. […]

[2] = system: Mesocestoides corti tetrathyridia; assay: Motility of tetrathyridia by video imaging; conditions: period of 30 minutes
Experimental: In some experiments, alongside to the worm tracker motility analyses, the parasite motor activity was also measured with a digital video camera (Kodak easy share Z915 digital camera) coupled to an inverted microscope (Nikon, model TMS-F). Fresh parasites were processed in the same way as in previous sections in U-shape 96-well microplates, then incubated overnight at 37°C in a 5% CO2 atmosphere and finally video recorded with a digital camera after drug treatment. Images were obtained for a period of 15 seconds and the data were analyzed with ImageJ software (version 1.48, NIH, USA). […] To quantify this type of movements the method of Patocka et al. was followed with some modifications. The videos were transformed to stacks of TIFF images by using the Filmora video editor (Wondershare Filmora, version 8.2.3, downloaded from https://filmora.wondershare.es/) and then imported into ImageJ. First, the stacks were first converted to 8 bit type images. Next, the background was subtracted and then converted to a binary image by threshold adjust. […]
Statistical analyses were carried out using the GraphPad Prism Software package, version 6 for Windows (GraphPad Software, CA, USA). […] For image based assays, pixel changes in control and treatments were calculated and analyzed with one way ANOVA and Dunnett post-test were performed comparing all the concentrations with the control. […]

[3] = system: Mesocestoides corti tetrathyridia; set-up: method as in PMID 12003065; conditions: 30 minutes of incubation; cited from earlier work

Chain of 5-HT7Mco1 (A0A482LRJ4 entry or part of it): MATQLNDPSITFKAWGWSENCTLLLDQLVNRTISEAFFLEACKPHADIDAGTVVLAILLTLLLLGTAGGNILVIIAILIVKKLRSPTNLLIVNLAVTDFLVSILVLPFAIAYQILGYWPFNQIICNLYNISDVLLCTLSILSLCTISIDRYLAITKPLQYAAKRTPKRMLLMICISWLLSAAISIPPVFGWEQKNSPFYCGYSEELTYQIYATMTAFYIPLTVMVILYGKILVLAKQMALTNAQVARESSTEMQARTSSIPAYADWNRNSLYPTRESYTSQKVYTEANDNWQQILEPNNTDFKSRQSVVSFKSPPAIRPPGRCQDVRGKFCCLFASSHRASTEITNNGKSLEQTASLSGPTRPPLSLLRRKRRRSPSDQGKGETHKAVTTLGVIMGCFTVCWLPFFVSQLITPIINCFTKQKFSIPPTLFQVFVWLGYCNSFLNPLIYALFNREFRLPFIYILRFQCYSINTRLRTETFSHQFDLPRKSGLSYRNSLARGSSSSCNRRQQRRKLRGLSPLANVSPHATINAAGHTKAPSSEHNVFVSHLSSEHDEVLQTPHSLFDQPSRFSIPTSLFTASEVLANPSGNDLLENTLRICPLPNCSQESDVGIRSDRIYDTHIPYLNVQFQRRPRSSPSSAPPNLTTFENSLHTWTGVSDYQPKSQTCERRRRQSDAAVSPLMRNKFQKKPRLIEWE
Chain of 5-HT7Egran2 (A0A482LXK0 entry or part of it): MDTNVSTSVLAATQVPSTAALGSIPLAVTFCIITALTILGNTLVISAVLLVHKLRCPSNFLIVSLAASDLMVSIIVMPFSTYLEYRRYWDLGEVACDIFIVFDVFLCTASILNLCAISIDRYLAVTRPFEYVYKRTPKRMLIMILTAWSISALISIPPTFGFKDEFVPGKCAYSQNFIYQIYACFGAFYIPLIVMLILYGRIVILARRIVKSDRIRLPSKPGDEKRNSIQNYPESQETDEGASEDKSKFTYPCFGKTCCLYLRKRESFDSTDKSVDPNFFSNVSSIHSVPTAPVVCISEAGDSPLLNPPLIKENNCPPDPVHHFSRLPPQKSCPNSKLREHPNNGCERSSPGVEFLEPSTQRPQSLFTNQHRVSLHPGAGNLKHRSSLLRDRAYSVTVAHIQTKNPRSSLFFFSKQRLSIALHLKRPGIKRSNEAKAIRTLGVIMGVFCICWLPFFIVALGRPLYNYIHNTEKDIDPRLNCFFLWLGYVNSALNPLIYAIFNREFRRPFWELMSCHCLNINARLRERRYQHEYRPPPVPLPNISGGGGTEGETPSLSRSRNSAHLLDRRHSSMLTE
Chain of 5-HT7Egran1 (A0A482LU10 entry or part of it): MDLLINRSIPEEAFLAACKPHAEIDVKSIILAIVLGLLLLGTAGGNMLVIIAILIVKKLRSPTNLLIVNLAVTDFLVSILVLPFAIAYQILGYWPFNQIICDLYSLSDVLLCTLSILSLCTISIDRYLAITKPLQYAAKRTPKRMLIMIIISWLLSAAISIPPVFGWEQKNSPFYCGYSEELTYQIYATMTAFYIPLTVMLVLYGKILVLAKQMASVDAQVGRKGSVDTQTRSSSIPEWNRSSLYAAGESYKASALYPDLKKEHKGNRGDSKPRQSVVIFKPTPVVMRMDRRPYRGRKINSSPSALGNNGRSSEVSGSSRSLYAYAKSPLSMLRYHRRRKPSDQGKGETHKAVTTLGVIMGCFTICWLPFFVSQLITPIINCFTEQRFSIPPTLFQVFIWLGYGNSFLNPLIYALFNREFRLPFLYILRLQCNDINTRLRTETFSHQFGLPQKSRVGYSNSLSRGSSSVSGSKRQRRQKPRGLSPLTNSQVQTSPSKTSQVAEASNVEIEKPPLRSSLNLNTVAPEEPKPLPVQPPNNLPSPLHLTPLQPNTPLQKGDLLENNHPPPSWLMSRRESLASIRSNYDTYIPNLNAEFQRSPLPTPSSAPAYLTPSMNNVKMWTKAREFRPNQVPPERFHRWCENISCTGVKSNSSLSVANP

| SMILES | pharmacological behaviour (agonist/antagonist, efficacy) in cAMP assay (5-HT7Egran2; 5-HT7Egran2) | EC50 (5-HT7Egran1) [nM] | pharmacological behaviour (agonist/antagonist, efficacy) in cAMP assay (5-HT7Egran1) | EC50 (5-HT7Mco1) [nM] | pharmacological behaviour (agonist/antagonist, efficacy) in cAMP assay (5-HT7Mco1; 5-HT7Mco1) | EC50 (5-HT7Egran2) [nM] | further results |
| --- | --- | --- | --- | --- | --- | --- | --- |
| CCN(CC)C(=O)[C@@H]1C=C2c3cccc4[nH]cc(c34)C[C@H]2N(C)C1 [LSD, Lysergic acid diethylamide] | antagonist | 35 ± 6 | potently activated | 4.4 ± 1 | potently activated |  | IC50 (5-HT7Egran2): 2.9 ± 0.2 nM |
| CN(C)c1cccc2c(S(=O)(=O)NCCCCC34CCCN3C(=O)N(CCCCN3CCN(c5cccc6ccccc56)CC3)C4=O)cccc12 (centres unmarked) [UCM120] |  |  |  |  |  |  | Ki (human 5-HT1A receptor): 2 nM |
| CN1C[C@H](C(=O)N[C@]2(C)O[C@@]3(O)[C@@H]4CCCN4C(=O)[C@H](Cc4ccccc4)N3C2=O)C=C2c3cccc4[nH]cc(c34)C[C@H]21 [ergotamine] | higher efficacy partial agonist | 290 ± 49 | low efficacy partial agonist | 354 ± 62 | higher efficacy partial agonist | 234 ± 37 |  |
| NCCc1c[nH]c2ccc(O)cc12 [5-HT, 5-hydroxytryptamine] |  | 171 ± 57 |  | 0.255 ± 0.063 |  |  | EC50 (5-HT7Egran2; HEK-293 cells expressing 5-HT7Egran2, IBMX 200μM, read-out: EC50 for evoked cAMP production): 0.543 ± 0.107 nM; fold-change in luminescence signal on addition of 5-HT (5-HT7Egran2; cells expressing 5-HT7Egran2, basal coupling): ~ 3.3 fold; fold-change in luminescence signal on addition of 5-HT (5-HT7Egran1; cells expressing 5-HT7Egran1): ~ 20 fold; concentration from which stimulation of motility is observed ([1]; 30 minutes of incubation, light scattering method): ≥ 500 µM; concentration from which a significant rise of motility is seen ([1]; period of two hours, WMicrotracker, up to 2000 μM): ≥ 100 µM; concentration necessary for significant changes in motility [2]: 1000 µM; concentration previously reported to stimulate tetrathyridia motility [3]: 100 nM; fold-change in luminescence signal on addition of 5-HT (5-HT7Mco1; cells expressing 5-HT7Mco1, basal coupling): ~ 2.5 fold |
| NCCc1c[nH]c2ccccc12 [tryptamine] |  |  |  | ~1000 |  | ~800 | cAMP response to neurotransmitter (activation) (5-HT7Egran2; 10μM, cells expressing 5-HT7Egran2): activator; sensitivity to tryptamine relative to 5-HT (fold less sensitive) (5-HT7Egran2; 5-HT7Egran2): at least 1000 fold; cAMP response to neurotransmitter (activation) (5-HT7Mco1; 10μM, cells expressing 5-HT7Mco1): activator; sensitivity to tryptamine relative to 5-HT (fold less sensitive) (5-HT7Mco1; 5-HT7Mco1): at least 1000 fold |
